The record followed here is US20250195513A1, “DEGRADATION OF IRAK4 BY CONJUGATION OF IRAK4 INHIBITORS WITH E3 LIGASE LIGAND AND METHODS OF USE” (BeiGene, Ltd., priority 2022, published 2025).

What all share (type): cell-based
Test [1] concerns TNF-α production in THP-1 cells. Kind of test: TNF-α Production Assay in THP-1 Cells (LPS stimulated). The settings on record: Homo sapiens, THP-1, 24 h; for Emax: maximum inhibition, read-out: TNF-α (THP-1) 24 h IMax. Put shortly: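 Cells (0.2 million/well) pretreated with compounds for 24 h, then stimulated with LPS at 1 μg/mL final for 24 h. TNF-α in culture supernatant quantified by TR-FRET immunoassay.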

For test [2], the system named is IL-6 production in human PBMC. The test can be described thus: IL-6 Production Assay in Human PBMC (LPS stimulated). The settings on record: Homo sapiens, 5 h; for Emax: maximum inhibition, read-out: IL-6 (PBMC) 5 h IMax. A digest of the protocol:
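Thawed PBMC were rested overnight at 37 °C, seeded at 0.2 million cells/well and pretreated with compounds for 24 h. They were then stimulated with LPS at 10 ng/mL for 5 h. IL-6 in the supernatant was quantified by TR-FRET.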

Test [3] concerns the target T1, IRAK4 (Homo sapiens, UniProt Q9NWZ3).
T1 construct: endogenous in cells; host or cells: Karpas299
T1 sequence (Q9NWZ3 1-460): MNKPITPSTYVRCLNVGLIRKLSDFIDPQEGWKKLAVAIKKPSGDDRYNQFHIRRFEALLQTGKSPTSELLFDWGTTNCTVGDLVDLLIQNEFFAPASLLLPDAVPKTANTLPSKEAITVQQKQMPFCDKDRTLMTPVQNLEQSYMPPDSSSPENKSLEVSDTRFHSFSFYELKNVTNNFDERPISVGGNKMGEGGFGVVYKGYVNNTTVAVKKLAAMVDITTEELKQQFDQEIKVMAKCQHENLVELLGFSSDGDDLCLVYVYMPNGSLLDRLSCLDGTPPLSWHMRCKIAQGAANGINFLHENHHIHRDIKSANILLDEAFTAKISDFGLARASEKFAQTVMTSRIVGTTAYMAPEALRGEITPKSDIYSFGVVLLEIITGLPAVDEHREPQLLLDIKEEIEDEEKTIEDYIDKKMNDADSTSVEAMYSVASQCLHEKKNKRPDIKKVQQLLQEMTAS
The test can be described thus: IRAK4 Degradation Assay with Human Serum (Karpas299, HTRF/TR-FRET). The settings on record: Karpas-299 in human serum, 24 hrs treatment; for DC50: read-out: IRAK4 degradtion with human serum assay DC50; for Dmax: read-out: IRAK4 degradtion with human serum assay Dmax (%). A digest of the protocol: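 Remaining IRAK4 measured by TR-FRET immunoassay on lysates of Karpas299 cells exposed 24 h to compound dilution series in human serum AB. DC50 derived from a Hill-slope fit of % degradation versus concentration.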
Background: TR-FRET usually uses a lanthanide donor and a delayed reading to cut background.

Test [4] concerns the target T1, IRAK4. Kind of test: IRAK4 Degradation Assay (Karpas299, HTRF/TR-FRET). The settings on record: Karpas-299 cells; for Dmax: maximum percentage of degradation. A digest of the protocol: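 Compound potency as DC50 (IC50) came from four-parameter fits of percent IRAK4 degradation. IRAK4 was measured by HTRF (665/620 nm) in lysates of Karpas299 cells seeded at 0.2 million per well. Cells had been treated with compound dilutions for 5 or 24 h.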

[5] abbreviates: 24 h treatment, read-out: IRAK4 in Karpas-299 (24 h) Dmax (%).
[6] abbreviates: 24 h treatment, read-out: IRAK4 in Karpas-299 (24 h) DC50.
The mark [7] stands for this setting: 5 h treatment, read-out: IRAK4 in Karpas-299 (5 h) Dmax (%).
[8] abbreviates: 5 h treatment, read-out: IRAK4 in Karpas-299 (5 h) DC50.

As to `COC[C@@H]1CN([C@H]2CC[C@H](n3cc4cc(NC(=O)c5ccc6cc(C#N)cnn56)c(C(C)(C)O)cc4n3)CC2)CCN1CCc1cc(F)c([C@H]2CCC(=O)NC2=O)c(F)c1` [Example 320], the IC50 amounted to 43 nM in test [1] and 9.2 nM in test [2]. The figures for the Emax in test [1] and in test [2] were 85% and 65%, respectively. For the same compound, the DC50 is 4.1 nM at IRAK4 [3] and 1 nM on IRAK4 [4] (setting [6]). Moreover, the Dmax on IRAK4 [3] turned out to be 98%; at IRAK4 [4] (setting [5]) it was 99%.
Turning to `CC(C)(O)c1cc2nn([C@H]3CC[C@H](N4CCN(C5CCN(c6cc(F)c(C7CCC(=O)NC7=O)c(F)c6)CC5)CC4)CC3)cc2cc1NC(=O)c1ccc2cc(C#N)cnn12` (stereo partly drawn) [Example 196, 3-cyano-N-(2-((1r,4r)-4-(4-(1-(4-((R)-2,6-dioxopiperidin-3-yl)-3,5-difluorophenyl)piperidin-4-yl)piperazin-1-yl)cyclohexyl)-6-(2-hydroxypropan-2-yl)-2H-indazol-5-yl)pyrrolo[1,2-b]pyridazine-7-carboxamide], the IC50 in test [1] is 20 nM; in test [2], 11 nM. In addition, the values for the Emax in test [1] and in test [2] were 86% and 72%, respectively. The half-maximal degradation concentration (DC50) at IRAK4 [3] was 8.8 nM; on IRAK4 [4] (setting [8]), 5.3 nM; on IRAK4 [4] (setting [6]), 0.6 nM. Further, the Dmax was determined as 93% at IRAK4 [3], 99% at IRAK4 [4] (setting [7]) and 99% on IRAK4 [4] (setting [5]).
As for `CC(C)(O)c1cc2nn(C34CC(N5CCN(CC6CN(c7cc(F)c([C@H]8CCC(=O)NC8=O)c(F)c7)C6)CC5)(C3)C4)cc2cc1NC(=O)c1ccc2cc(C#N)cnn12` [Example 332, (R)-3-cyano-N-(2-(3-(4-((1-(4-(2,6-dioxopiperidin-3-yl)-3,5-difluorophenyl)azetidin-3-yl)methyl)piperazin-1-yl)bicyclo[1.1.1]pentan-1-yl)-6-(2-hydroxypropan-2-yl)-2H-indazol-5-yl)pyrrolo[1,2-b]pyridazine-7-carboxamide], the IC50 was determined as 7.6 nM in test [1] and 1.4 nM in test [2]. Also, the Emax in test [1] was 93%; in test [2], 70%. Moreover, the results for the DC50 at IRAK4 [3], on IRAK4 [4] (setting [8]) and on IRAK4 [4] (setting [6]) were 10 nM, 1.5 nM and 0.6 nM, respectively. The Dmax amounted to 101% on IRAK4 [3], 97% on IRAK4 [4] (setting [7]) and 97% on IRAK4 [4] (setting [5]).
Consider `COC[C@H]1CN([C@H]2CC[C@H](n3cc4cc(NC(=O)c5ccc6cc(C#N)cnn56)c(C(C)(C)O)cc4n3)CC2)CCN1CCc1cc(F)c([C@H]2CCC(=O)NC2=O)c(F)c1` [Example 314, 3-cyano-N-(2-((1R,4r)-4-((R)-4-(4-((R)-2,6-dioxopiperidin-3-yl)-3,5-difluorophenethyl)-3-(methoxymethyl)piperazin-1-yl)cyclohexyl)-6-(2-hydroxypropan-2-yl)-2H-indazol-5-yl)pyrrolo[1,2-b]pyridazine-7-carboxamide], for which the values for the IC50 in test [1] and in test [2] were 26 nM and 2.3 nM, respectively. Further, the Emax was determined as 88% in test [1] and 51% in test [2]. Besides, the results for the DC50 at IRAK4 [3] and on IRAK4 [4] (setting [6]) were 3.4 nM and 0.6 nM, respectively. The Dmax on IRAK4 [3] and on IRAK4 [4] (setting [5]) was 98% throughout.
As to `CC(C)(O)c1cc2nn([C@H]3CC[C@H](N4CCN(C(=O)C5CN(c6cc(F)c([C@H]7CCC(=O)NC7=O)c(F)c6)C5)CC4)CC3)cc2cc1NC(=O)c1ccc2cc(C#N)cnn12` [Example 178, 3-cyano-N-(2-((1r,4r)-4-(4-(1-(4-((R)-2,6-dioxopiperidin-3-yl)-3,5-difluorophenyl)azetidine-3-carbonyl)piperazin-1-yl)cyclohexyl)-6-(2-hydroxypropan-2-yl)-2H-indazol-5-yl)pyrrolo[1,2-b]pyridazine-7-carboxamide], the figures for the IC50 in test [1] and in test [2] were 6.4 nM and 1.2 nM, respectively. Also, the results for the Emax in test [1] and in test [2] were 92% and 61%, respectively. Further, the results for the DC50 at IRAK4 [3], on IRAK4 [4] (setting [8]) and on IRAK4 [4] (setting [6]) were 17 nM, 0.6 nM and 0.4 nM, respectively. For the same compound, the values for the Dmax on IRAK4 [3], on IRAK4 [4] (setting [7]) and on IRAK4 [4] (setting [5]) were 100%, 97% and 98%, respectively.

As usually defined, the IC50 is the concentration at which inhibition is half-maximal. Low readings indicate higher potency, high ones lower potency. For orientation: DC50 means the concentration at which degradation of the target reaches its halfway point. By Dmax is commonly meant the greatest extent of degradation seen.
